Assay results taken from PubChem BioAssay AID2060488 (Molecular Pharmacology Branch, DTP, NCI, 2025).
Several values for one entry are separate records, joined by “and”; a condition that tells them apart may be missing. Identical values can stand only once.

Test system: 966289-007-R4-J1-PDC complex spheroid viability
Experiment: Anticancer human tumor 966289-007-R4-J1-PDC patient-derived pancreatic adenocarcinoma cell line growth inhibition [GQUAD]
Conditions: for viability, T/C: stronger effect = lower value
From the text: DNA G-quadruplex Stabilizer Agents in Combinations in Complex Spheroids
A high-throughput screen of multi-cell type tumor spheroids was designed to identify active combinations of DNA G-quadruplex stabilizer agents and targeted small molecules. Complex spheroids include a stromal component modeled by human endothelial cells (HUVEC) and fibroblasts modeled by human mesenchymal stem cells (MSCs). The concentration ranges selected for each drug and investigational agent were based upon clinically achievable concentrations if the clinical Cmax of the agent was known.
Compounds. The drugs and investigational agents: pidnarulex (CX-5461; NSC782164), APTO-253 (NSC789042), BRACO-19 (NSC847499), peposertib (NSC802822), ceralasertib (NSC780249), elimusertib (NSC800525), camonsertib (NSC841442), AZD-1390 (NSC803789), olaparib (NSC753686), talazoparib (NSC767125), ART-558 (NSC835418), sotorasib (NSC818433), MRTX-1133 (NSC836407), SN-38 (NSC673596), topotecan (NSC609699), etoposide (NSC141540), doxorubicin (NSC123127), gemcitabine (NSC613327), 5-fluorouracil (NSC19893), paclitaxel (NSC125973), vemurafenib (NSC761431), panobinostat (NSC761190), R-306465 (JNJ-16241199; NSC773264), adavosertib (NSC754352), TP-3654 (NSC805149), carboplatin (NSC241240), KSQ-4279 (NSC840948), and staurosporine (NSC755774) were obtained from the National Cancer Institute (NCI) Developmental Therapeutics Program Chemical Repository (34). The FDA-approved anticancer drug set is available from the NCI Developmental Therapeutics Program. […] The stock solutions were prepared in dimethyl sulfoxide (DMSO, Sigma-Aldrich, St. Louis, MO, cat. D2650) at 800-fold the tested concentration and stored at -70 degrees C prior to their use. All drugs and investigational agents were tested over a range starting from a high concentration at or near the clinical Cmax and decreasing in half-log increments. If the clinical Cmax for an agent had not been determined, the highest concentration tested was 10 microM.
2.3 Cell Culture. All cells were maintained in an incubator at 37 degrees C and 5% CO2 with 95% humidity. The PDC lines were cultured according to standard operating procedures established by the NCI PDMR. All PDCs were thawed and cultured in Matrigel-coated flasks prepared with a working solution of 1X Ham's F-12 nutrient mix, without supplementation (Invitrogen, cat. 11765054), 100 U/mL penicillin-streptomycin (Invitrogen, cat. 15140122), and 2.5% Matrigel (Corning Inc., cat. 354248) for the first three passages. The 857933-349-R-J2-PDC line was cultured in 6C/Colon 1B media, which includes advanced DMEM/F-12 (Thermo Fisher Scientific, cat. 12634028), 10 mM HEPES (Thermo Fisher Scientific, cat. 15630080), 1X GlutaMAX supplement (Thermo Fisher Scientific, cat. 35050061), 0.1 mg/mL primocin (InvivoGen, cat. ant-pm-2), 10% defined fetal bovine serum, heat inactivated (HyClone Laboratories Inc., cat. SH30070.03HI), 50% L-WRN conditioned media (ATCC, cat. CRL-3276), 1.25 mM N-Acetyl-L-cysteine (Sigma-Aldrich, cat. A9165), 10 mM nicotinamide (Sigma-Aldrich, cat. N0636), 1X B-27 supplement (Thermo Fisher Scientific, cat. 17504044), 1X N-2 supplement (Thermo Fisher Scientific, cat. 17502048), 10 microM Y-27632 dihydrochloride (Tocris Bioscience, cat. 1254), and 50 ng/mL human EGF recombinant protein (Thermo Fisher Scientific, cat. PHG0311). The 485176-168-R4-J1-PDC line was cultured in Panc media, which includes all 6C/Colon 1B media components plus 100 ng/mL human FGF-10 (Thermo Fisher Scientific, cat. 100-26), 500 nM SB-431542 (Selleckchem, cat. S1067), and gastrin (Tocris, cat. 3006).
[…]

[1] = curve of first compound, second compound 0.0316 µM
[2] = curve of first compound, second compound 0.1 µM
[3] = curve of first compound, second compound 0.316 µM
[4] = curve of first compound, second compound 1 µM
[5] = curve of first compound, second compound 3.16 µM
[6] = curve of first compound, second compound 10 µM
[7] = second compound 0.0316 µM, first compound 0.0316 µM
[8] = second compound 0.0316 µM, first compound 0.316 µM
[9] = second compound 0.1 µM, first compound 0.0316 µM
[10] = second compound 0.1 µM, first compound 0.316 µM
[11] = second compound 0.316 µM, first compound 0.0316 µM
[12] = second compound 0.316 µM, first compound 0.316 µM
[13] = second compound 1 µM, first compound 0.0316 µM
[14] = second compound 1 µM, first compound 0.316 µM
[15] = second compound 3.16 µM, first compound 0.0316 µM
[16] = second compound 3.16 µM, first compound 0.316 µM
[17] = second compound 10 µM, first compound 0.0316 µM
[18] = second compound 10 µM, first compound 0.316 µM
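Further: spheroids exposed to the agents for seven days before readout.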
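Wherever viability, T/C is given: percent viability relative to DMSO vehicle control wells taken as 100%.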

`Cn1ncnc1[C@H]1c2n[nH]c(=O)c3cc(F)cc(c23)N[C@@H]1c1ccc(F)cc1` + Cc1[nH]c2ccc(F)cc2c1-c1nc2c3cccnc3c3ncccc3c2[nH]1 showed an IC50 [1] of 101 nM, an IC50 [2] of 89.8 nM and an IC50 [3] of 105 nM. It also gave an IC50 [4] of 127 nM, an IC50 [5] of 76.3 nM and an IC50 [6] of 63.6 nM. For the same compound, the viability, T/C (second compound 0.0316 µM, first compound 0.000999 µM) was 108%, the viability, T/C (second compound 0.0316 µM, first compound 0.00316 µM) was 95.8% and the viability, T/C (second compound 0.0316 µM, first compound 0.00999 µM) was 105%. The viability, T/C [7] was 96.8%, the viability, T/C (second compound 0.0316 µM, first compound 0.0999 µM) was 50.3% and the viability, T/C [8] was 21%. It also gave a viability, T/C (second compound 0.1 µM, first compound 0.000999 µM) of 101%, a viability, T/C (second compound 0.1 µM, first compound 0.00316 µM) of 99.4% and a viability, T/C (second compound 0.1 µM, first compound 0.00999 µM) of 106%. The viability, T/C [9] was 99.3%, the viability, T/C (second compound 0.1 µM, first compound 0.0999 µM) was 44.9% and the viability, T/C [10] was 20%. For the same compound, the viability, T/C (second compound 0.316 µM, first compound 0.000999 µM) was 101%, the viability, T/C (second compound 0.316 µM, first compound 0.00316 µM) was 107% and the viability, T/C (second compound 0.316 µM, first compound 0.00999 µM) was 108%. It also gave a viability, T/C [11] of 105%, a viability, T/C (second compound 0.316 µM, first compound 0.0999 µM) of 51.5% and a viability, T/C [12] of 18.6%. For the same compound, the viability, T/C (second compound 1 µM, first compound 0.000999 µM) was 101%, the viability, T/C (second compound 1 µM, first compound 0.00316 µM) was 103% and the viability, T/C (second compound 1 µM, first compound 0.00999 µM) was 112%. For the same compound, the viability, T/C [13] was 102%, the viability, T/C (second compound 1 µM, first compound 0.0999 µM) was 58.4% and the viability, T/C [14] was 18.6%. The viability, T/C (second compound 3.16 µM, first compound 0.000999 µM) was 105%, the viability, T/C (second compound 3.16 µM, first compound 0.00316 µM) was 105% and the viability, T/C (second compound 3.16 µM, first compound 0.00999 µM) was 110%. For the same compound, the viability, T/C [15] was 92.8%, the viability, T/C (second compound 3.16 µM, first compound 0.0999 µM) was 36.9% and the viability, T/C [16] was 12.1%. It also gave a viability, T/C (second compound 10 µM, first compound 0.000999 µM) of 106%, a viability, T/C (second compound 10 µM, first compound 0.00316 µM) of 105% and a viability, T/C (second compound 10 µM, first compound 0.00999 µM) of 109%. It also gave a viability, T/C [17] of 88.3%, a viability, T/C (second compound 10 µM, first compound 0.0999 µM) of 25.3% and a viability, T/C [18] of 11.6%.
`CC(=O)O[C@H]1C(=O)[C@@]2(C)[C@H]([C@H](OC(=O)c3ccccc3)[C@]3(O)C[C@H](OC(=O)[C@H](O)[C@@H](NC(=O)c4ccccc4)c4ccccc4)C(C)=C1C3(C)C)[C@]1(OC(C)=O)CO[C@@H]1C[C@@H]2O` + CN(C)c1ccc(Nc2c3ccc(NC(=O)CCN4CCCC4)cc3nc3cc(NC(=O)CCN4CCCC4)ccc23)cc1 was tested, and the IC50 [1] was less than 31.6 nM, the IC50 [2] was less than 31.6 nM and the IC50 [3] was less than 31.6 nM. The IC50 [4] was less than 31.6 nM, the IC50 [5] was less than 31.6 nM and the IC50 [6] was less than 31.6 nM. It also gave a viability, T/C [7] of 6.18%, a viability, T/C (second compound 0.0316 µM, first compound 0.1 µM) of 3.03% and a viability, T/C [8] of 4.68%. The viability, T/C (second compound 0.0316 µM, first compound 1 µM) was 5.91%, the viability, T/C (second compound 0.0316 µM, first compound 3.16 µM) was 9.45% and the viability, T/C (second compound 0.0316 µM, first compound 10 µM) was 14.6%. The viability, T/C [9] was 6.28%, the viability, T/C (second compound 0.1 µM, first compound 0.1 µM) was 3.31% and the viability, T/C [10] was 4.65%. For the same compound, the viability, T/C (second compound 0.1 µM, first compound 1 µM) was 7.21%, the viability, T/C (second compound 0.1 µM, first compound 3.16 µM) was 8.08% and the viability, T/C (second compound 0.1 µM, first compound 10 µM) was 13.5%. It also gave a viability, T/C [11] of 6.93%, a viability, T/C (second compound 0.316 µM, first compound 0.1 µM) of 3.41% and a viability, T/C [12] of 4.38%. For the same compound, the viability, T/C (second compound 0.316 µM, first compound 1 µM) was 6.89%, the viability, T/C (second compound 0.316 µM, first compound 3.16 µM) was 8.86% and the viability, T/C (second compound 0.316 µM, first compound 10 µM) was 12.6%. It also gave a viability, T/C [13] of 6.47%, a viability, T/C (second compound 1 µM, first compound 0.1 µM) of 3.38% and a viability, T/C [14] of 4.34%. For the same compound, the viability, T/C (second compound 1 µM, first compound 1 µM) was 6.41%, the viability, T/C (second compound 1 µM, first compound 3.16 µM) was 9.91% and the viability, T/C (second compound 1 µM, first compound 10 µM) was 12%. It also gave a viability, T/C [15] of 5.06%, a viability, T/C (second compound 3.16 µM, first compound 0.1 µM) of 3.06% and a viability, T/C [16] of 4.72%. The viability, T/C (second compound 3.16 µM, first compound 1 µM) was 6.71%, the viability, T/C (second compound 3.16 µM, first compound 3.16 µM) was 7.72% and the viability, T/C (second compound 3.16 µM, first compound 10 µM) was 11.3%. For the same compound, the viability, T/C [17] was 3.86%, the viability, T/C (second compound 10 µM, first compound 0.1 µM) was 2.35% and the viability, T/C [18] was 3.67%. The viability, T/C (second compound 10 µM, first compound 1 µM) was 4.43%, the viability, T/C (second compound 10 µM, first compound 3.16 µM) was 6.04% and the viability, T/C (second compound 10 µM, first compound 10 µM) was 6.46%.
For `COc1ccc([C@@H](O)c2cc(-c3ncnc4cc(N5CCOCC5)ccc34)c(F)cc2Cl)nn1`, the viability, T/C (compound 0.0316 µM) was 103% and 98.9% and 97.2%, the viability, T/C (compound 0.1 µM) was 92.9% and 100% and 92% and the viability, T/C (compound 0.316 µM) was 110% and 106% and 105%. For the same compound, the viability, T/C (compound 1 µM) was 103% (2×) and 108%, the viability, T/C (compound 3.16 µM) was 113% and 110% and 126% and the viability, T/C (compound 10 µM) was 90.2% and 103% and 108%. The IC50 (curve of compound) was greater than 10000 nM.
`O=C(NO)c1cnc(N2CCN(S(=O)(=O)c3ccc4ccccc4c3)CC2)nc1` was tested, and the viability, T/C (compound 0.0316 µM) was 104% and 97% and 89.4%, the viability, T/C (compound 0.1 µM) was 104% (2×) and 99.9% and the viability, T/C (compound 0.316 µM) was 33.4% and 39% and 70%. For the same compound, the viability, T/C (compound 1 µM) was 7.89% and 9.13% and 14.1%, the viability, T/C (compound 3.16 µM) was 1.55% and 1.2% and 4.88% and the viability, T/C (compound 10 µM) was 0.4% and 0.34% and 0.29%. For the same compound, the IC50 (curve of compound) was 241 nM and 258 nM and 480 nM.
